Assay [1] addresses T1, human ferroportin (SLC40A1) (Homo sapiens, UniProt Q9NP59).
T1 sequence (Q9NP59 1-571): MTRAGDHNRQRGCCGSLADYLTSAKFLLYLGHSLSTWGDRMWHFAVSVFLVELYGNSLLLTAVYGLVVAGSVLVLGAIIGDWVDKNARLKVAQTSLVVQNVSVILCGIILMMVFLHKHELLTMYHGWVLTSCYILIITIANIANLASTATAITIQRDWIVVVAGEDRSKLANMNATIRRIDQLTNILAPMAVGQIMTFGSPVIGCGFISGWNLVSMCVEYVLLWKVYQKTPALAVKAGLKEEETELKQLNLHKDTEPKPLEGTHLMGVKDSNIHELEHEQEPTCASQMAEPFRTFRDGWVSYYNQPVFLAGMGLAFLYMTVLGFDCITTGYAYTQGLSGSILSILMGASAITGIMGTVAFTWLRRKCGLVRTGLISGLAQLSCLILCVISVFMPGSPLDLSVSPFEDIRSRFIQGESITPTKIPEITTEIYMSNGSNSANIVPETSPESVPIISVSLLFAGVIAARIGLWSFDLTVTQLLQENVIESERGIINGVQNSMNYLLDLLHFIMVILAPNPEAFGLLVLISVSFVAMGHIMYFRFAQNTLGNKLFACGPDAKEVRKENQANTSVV
Description: FPN activity assay: internalization/degradation of ferroportin-GFP in stably transfected HEK293 cells (decrease in GFP fluorescence). The following applies: compound incubated at least 18 hours. The class given is cell-based. The method, then: Peptide analogues were tested in vitro for induction of internalization of the human ferroportin protein. Following internalization, the ferroporin protein is degraded. The assay used (FPN activity assay) measures a decrease in fluorescence of the receptor. The cDNA encoding the human ferroportin (SLC40A1) was cloned from a cDNA clone from Origene (NM_014585). The DNA encoding the ferroportin was amplified by PCR using primers also encoding terminal restriction sites for subcloning, but without the termination codon. The ferroportin receptor was subcloned into a mammalian GFP expression vector containing a neomycin (G418) resistance marker in such that the reading frame of the ferroportin was fused in frame with the GFP protein. The fidelity of the DNA encoding the protein was confirmed by DNA sequencing. HEK293 cells were used for transfection of the ferroportin-GFP receptor expression plasmid. The cells were grown according to standard protocol in growth medium and transfected with the plasmids using Lipofectamine (manufacturer's protocol, Invitrogen). The cells stably expressing ferroportin-GFP were selected using G418 in the growth medium (in that only cells that have taken up and incorporated the cDNA expression plasmid survive) and sorted several times on a Cytomation MoFloTM cell sorter to obtain the GFP-positive cells (488 nm/530 nm). The cells were propagated and frozen in aliquots. […] Compound was added to desired final concentration for at least 18 hours in the incubator. […] Compound was added to desired final concentration for at least 18 hours but no more than 24 hours in the incubator. […] The “RI” in RI-Mini-Hepcidin refers to Retro Inverse. A retro inverse peptide is a peptide with a reversed sequence in all D amino acids. An example is that […] becomes […]. The EC50 of these reference compounds for ferroportin internalization/degradation was determined according to the FPN activity assay described above. These peptides served as control standards.

The target of a further assay is T2, ferroportin (Homo sapiens, UniProt Q9NP59).
T2 sequence (Q9NP59 1-571): T1 sequence (Q9NP59 1-571)
Description: T47D cell-based ferroportin internalization assay in presence of 0.5% mouse serum albumin (MSA). The following applies: T47D cells. The protocol:
The potency of the peptides in causing ferroportin internalization was evaluated in a T47D cell-based assay. […] In this internalization assay, the potency of the test peptides was evaluated in presence of serum albumin which is the main protein component in the blood. T47D cells were maintained in RPMI media (containing required amount of fetal bovine serum) and regularly sub-cultured. In preparation for the assay, the cells were seeded in 96-well plates at a density of 80-100 k cells per well in 100 ul volume and allowed to rest overnight. On the next day, test peptides were first prepared in dilution series (10-point series, starting concentration of ˜5 μM, typically 3-4×fold dilution steps), all with 0.5% mouse serum albumin (MSA purified from mouse serum; Sigma, A3139). The test peptide dilution series were allowed to incubate at room temperature for 30 min. Then the media was aspirated from the 96-well cell plate and test peptide dilution series were added. After 1 hr incubation, the media with test peptides was aspirated out and AF647-conjugated detection peptide was added at fixed concentration of 200 nM. The AF647-conjugated detection peptide was previously verified to bind to ferroportin and cause its internalization. The cells were washed again after a 2 hr incubation in preparation for flow cytometry analysis. The Median Fluorescence Intensity (MFI) of the AF647-positive population was measured (after removing dead cells and non-singlets from the analysis). The MFI values were used to generate a dose-response curve and obtain IC50 potencies for the test peptides. The IC50 potencies were calculated by using 4-parameter non-linear fitting function in Graphpad Prism (Table 6A).

SMILES strings stand for the structures. Numbered stars: 1 amine (or outer) side, 2 acyl side, 3 side chain; on linkers, the order of the positions; unused ones are H or OH. Bridge positions count the residues as written; N and C are the ends. Square brackets hold non-standard residues; d marks the D form. Side chains are listed from the residue outwards. Peptide text beside a SMILES is read from it. * marks the point of attachment. Dip = N[C@H](C(=O)O)C(c1ccccc1)c1ccccc1; Hag = O=C([C@H](CCC=[*:3])N[*:1])[*:2]; Palmitoyl = CCCCCCCCCCCCCCCC(=O)*; NMeF = CN[C@@H](Cc1ccccc1)C(=O)O; tBuAla = CC(C)(C)C[C@H](N)C(=O)O; β3hF = N[C@H](CC(=O)O)Cc1ccccc1; Isovaleryl = CC(C)CC(=O)*; Ahx = NCCCCCC(=O)O; GABA = NCCCC(=O)O

As a reminder, the IC50 is the concentration that inhibits the measured activity by half. Turning to `CCCCCCCCCCCCCCCC(=O)NCCCCCC(=O)NCCCC[C@@H]1NC(=O)[C@H](C)NC(=O)[C@@H]2CCCN2C(=O)[C@H](C(c2ccccc2)c2ccccc2)NC(=O)[C@H](Cc2c[nH]cn2)NC(=O)[C@H]([C@@H](C)O)NC(=O)[C@@H](NC(=O)CC(C)C)CCC=CCC[C@@H](C(=O)N[C@H](CC(=O)N[C@H](CCCCN)C(N)=O)Cc2ccccc2)NC1=O` (single isomer, unassigned) [Compd 37], the IC50 (in assay [1]; on ferroportin) was 100 to 500 nM throughout.
As to `CCCCCCCCCCCCCCCC(=O)NCCCCCC(=O)NCCCC[C@H](NC(=O)C[C@H](Cc1ccccc1)NC(=O)[C@@H]1CCC=CCC[C@H](NC(=O)[C@@H]2CCCN2C(=O)[C@@H](NC(=O)[C@H](Cc2c[nH]cn2)NC(=O)[C@@H](NC(=O)[C@H](CCC(=O)O)NC(=O)CC(C)C)[C@@H](C)O)C(c2ccccc2)c2ccccc2)C(=O)N[C@@H]([C@@H](C)CC)C(=O)N1)C(=O)N[C@H](CCCCN)C(N)=O` [Compd 6] (Isovaleryl-ETH[Dip]P[Hag]I[Hag][β3hF]K([Ahx-Palmitoyl])[dK]-NH2; staple 6-8), the IC50 in assay [1] was 10 to 100 nM; on ferroportin it was 1 to 10 nM.
In the same order, the values of `CCCCCCCCCCCCCCCC(=O)NCCCCCC(=O)NCCCC[C@H](NC(=O)C[C@H](Cc1ccccc1)NC(=O)[C@@H](CCCCN)NC(=O)[C@@H]1CCC=CCC[C@H](NC(=O)[C@@H]2CCCN2C(=O)[C@@H](NC(=O)[C@H](Cc2c[nH]cn2)NC(=O)[C@@H](NC(=O)[C@H](CCC(=O)O)NC(=O)CC(C)C)[C@@H](C)O)C(c2ccccc2)c2ccccc2)C(=O)N1)C(=O)N[C@H](CCCCN)C(N)=O` [Compd 15] are 10 to 100 nM and 1 to 10 nM.
`CCCCCCCCCCCCCCCC(=O)NCCCCCC(=O)NCCCC[C@H](NC(=O)C[C@H](Cc1ccccc1)NC(=O)[C@@H]1CCC=CCC[C@H](NC(=O)CC(C)C)C(=O)N[C@@H]([C@@H](C)O)C(=O)N[C@@H](Cc2c[nH]cn2)C(=O)N[C@@H](C(c2ccccc2)c2ccccc2)C(=O)N2CCC[C@H]2C(=O)N[C@@H](C)C(=O)N[C@@H]([C@@H](C)CC)C(=O)N1)C(N)=O` [Compd 17]: the IC50 in assay [1] lay in the range of 10 to 100 nM; on ferroportin, 1 to 10 nM.
As to `CCCCCCCCCCCCCCCC(=O)NCCCCCC(=O)NCCCC[C@H](NC(=O)[C@@H]1CCC=CCC[C@H](NC(=O)CC(C)C)C(=O)N[C@@H]([C@@H](C)O)C(=O)N[C@@H](Cc2c[nH]cn2)C(=O)N[C@@H](C(c2ccccc2)c2ccccc2)C(=O)N2CCC[C@H]2C(=O)N[C@@H](C)C(=O)N[C@@H]([C@@H](C)CC)C(=O)N1)C(N)=O` [Compd 18] (Isovaleryl-[Hag]TH[Dip]PAI[Hag]K([Ahx-Palmitoyl])-NH2; staple 1-8), the IC50 in assay [1] is 100 to 500 nM; on ferroportin, 10 to 100 nM.
Take `CCCCCCCCCCCCCCCC(=O)NCCCCCC(=O)NCCCC[C@H](NC(=O)C[C@H](Cc1ccccc1)NC(=O)[C@@H]1CC=CCC[C@H](NC(=O)CC(C)C)C(=O)N[C@@H]([C@@H](C)O)C(=O)N[C@@H](Cc2c[nH]cn2)C(=O)N[C@@H](C(c2ccccc2)c2ccccc2)C(=O)N2CCC[C@H]2C(=O)N[C@@H](C)C(=O)N[C@@H]([C@@H](C)CC)C(=O)N1)C(=O)N[C@@H](CCCNC(=N)N)C(N)=O` [Compd 22]: the figures for the IC50 (in assay [1]; on ferroportin) were 1 to 10 nM and 10 to 100 nM, respectively.
Regarding `CCCCCCCCCCCCCCCC(=O)NCCCCCC(=O)NCCCC[C@H](NC(=O)C[C@H](Cc1ccccc1)NC(=O)[C@@H]1CCC=CCC[C@H](NC(=O)CC(C)C)C(=O)N[C@@H]([C@@H](C)O)C(=O)N(C)[C@@H](Cc2c[nH]cn2)C(=O)N[C@@H](C(c2ccccc2)c2ccccc2)C(=O)N2CCC[C@H]2C(=O)N[C@@H](C)C(=O)N[C@@H]([C@@H](C)CC)C(=O)N1)C(=O)N[C@H](CCCCN)C(N)=O` [Compd 50], at ferroportin, the IC50 is over 500 nM.
For `CCCCCCCCCCCCCCCC(=O)NCCCCCC(=O)NCCCC[C@H](NC(=O)C[C@H](Cc1ccccc1)NC(=O)[C@@H]1CCC=CCC[C@H](NC(=O)CC(C)C)C(=O)N[C@@H]([C@@H](C)O)C(=O)N[C@@H](Cc2c[nH]cn2)C(=O)N(C)[C@@H](Cc2ccccc2)C(=O)N2CCC[C@H]2C(=O)N[C@@H](C)C(=O)N[C@@H]([C@@H](C)CC)C(=O)N1)C(=O)N[C@H](CCCCN)C(N)=O` [Compd 51] (Isovaleryl-[Hag]TH[NMeF]PAI[Hag][β3hF]K([Ahx-Palmitoyl])[dK]-NH2; staple 1-8), the half-inhibitory concentration (IC50) on ferroportin was over 500 nM.
For `CCCCCCCCCCCCCCCC(=O)NCCCCCC(=O)NCCCC[C@H](NC(=O)C[C@H](Cc1ccccc1)NC(=O)[C@@H]1CCC=CCC[C@H](NC(=O)CC(C)C)C(=O)N[C@@H](CC(C)(C)C)C(=O)N[C@@H](Cc2c[nH]cn2)C(=O)N[C@@H](C(c2ccccc2)c2ccccc2)C(=O)N2CCC[C@H]2C(=O)N[C@@H](C)C(=O)N[C@@H]([C@@H](C)CC)C(=O)N1)C(=O)N[C@H](CCCCN)C(N)=O` [Compd 58] (Isovaleryl-[Hag][tBuAla]H[Dip]PAI[Hag][β3hF]K([Ahx-Palmitoyl])[dK]-NH2; staple 1-8), in assay [1], the IC50 is over 500 nM.
In the case of `CCCCCCCCCCCCCCCC(=O)NCCCCCC(=O)NCCCC[C@H](NC(=O)C[C@H](Cc1ccccc1)NC(=O)[C@@H]1CCC=CCC[C@H](NC(=O)CC(C)C)C(=O)N[C@@H]([C@@H](C)O)C(=O)N[C@@H](CC(C)(C)C)C(=O)N[C@@H](C(c2ccccc2)c2ccccc2)C(=O)N2CCC[C@H]2C(=O)N[C@@H](C)C(=O)N[C@@H]([C@@H](C)CC)C(=O)N1)C(=O)N[C@H](CCCCN)C(N)=O` [Compd 59] (Isovaleryl-[Hag]T[tBuAla][Dip]PAI[Hag][β3hF]K([Ahx-Palmitoyl])[dK]-NH2; staple 1-8), the IC50 in assay [1] was over 500 nM.
In turn, `CCCCCCCCCCCCCCCC(=O)NCCCCCC(=O)NCCCC[C@H](NC(=O)C[C@H](Cc1ccccc1)NC(=O)[C@@H]1CCC=CCC[C@H](NC(=O)CC(C)C)C(=O)N[C@@H]([C@@H](C)O)C(=O)N[C@@H](Cc2c[nH]cn2)C(=O)N[C@@H](CC(C)(C)C)C(=O)N2CCC[C@H]2C(=O)N[C@@H](C)C(=O)N[C@@H]([C@@H](C)CC)C(=O)N1)C(=O)N[C@H](CCCCN)C(N)=O` [Compd 60] gave an IC50 in assay [1] of 10 to 100 nM.
`CCCCCCCCCCCCCCCC(=O)NCCCCCC(=O)NCCCC[C@H](NC(=O)C[C@H](Cc1ccccc1)NC(=O)[C@@H]1CCC=CCC[C@H](NC(=O)CC(C)C)C(=O)N[C@@H]([C@@H](C)O)C(=O)N[C@@H](Cc2c[nH]cn2)C(=O)N[C@@H](C(c2ccccc2)c2ccccc2)C(=O)N2CCC[C@H]2C(=O)NCCCC(=O)N1)C(=O)N[C@H](CCCCN)C(N)=O` [Compd 66] (Isovaleryl-[Hag]TH[Dip]P[GABA][Hag][β3hF]K([Ahx-Palmitoyl])[dK]-NH2; staple 1-7): in assay [1], the IC50 lay within 10 to 100 nM.
`CCCCCCCCCCCCCCCC(=O)NCCCCCC(=O)NCCCC[C@@H]1NC(=O)C[C@H](Cc2ccccc2)NC(=O)[C@@H](CCCCN)NC(=O)[C@H]([C@@H](C)CC)NC(=O)[C@H](C)NC(=O)[C@@H]2CCCN2C(=O)[C@H](C(c2ccccc2)c2ccccc2)NC(=O)[C@H](Cc2c[nH]cn2)NC(=O)[C@H]([C@@H](C)O)NC(=O)[C@@H](NC(=O)CC(C)C)CCC=CCC[C@@H](C(N)=O)NC1=O` [Compd 84] (Isovaleryl-[Hag]TH[Dip]PAI[dK][β3hF]K([Ahx-Palmitoyl])[Hag]-NH2; staple 1-11): the IC50 in assay [1] lay in the range of 100 to 500 nM.

Source of the values: US20240209053A1 (Protagonist Therapeutics, Inc., priority 2021, published 2024).
